Test [1] deals with plasma protein extravasation. In words: mCPP model in guinea pigs: plasma protein extravasation in the dura mater (EvansBlue). The note with it: for plasma protein extravasation as EvansBlue extinction at 600nm: 2 minutes before 1µg/kg mCPP, guinea pigs. It counts as in vivo. Here is the method:
Functional test of Pimethixene in the mCPP model in guinea pigs.
In accordance to the protocol published by Markowitz et. al; (1987) and Olesen et. al; (2000), guinea pigs were used to determine the amount of plasma protein released at the blood vessels within the Dura mater after mCPP application. […] 2 minutes later 1µg/kg body weight mCPP were injected and followed by the i.v. application of EvansBlue as marker for the protein plasma extravasation. 15 minutes later animals were transcranial perfused and decapitated. A,defined area of the dura mater was isolated and transferred into an eppendorf tube containing 200µl formamid. Because EvansBlue binds to plasma protein, the amount of bound marker dye is a measure of extravasation of plasma protein. Formamid dissolves EvansBlue from the protein which can be colorimetric detected and quantified at 600 nm. Table 2: Determination of plasma protein extravasation as EvansBlue extinction at 600nm.

The target of the next test is T1, 5-HT2A receptor (Homo sapiens, UniProt P28223).
T1 construct: expressed in transfected cells; host or cells: HEK293
In words: 5-HT2A receptor binding method, [3H]ketanserin. The note with it: read-out: pKi values (converted).

The target of another test is T2, 5-HT2C receptor (Homo sapiens, UniProt P28335).
T2 construct: expressed in transfected cells; host or cells: Cos-7
In words: 5-HT2C receptor binding method, [3H]mesulergine. The note with it: read-out: pKi values (converted). Here is the method: 5-HT2C receptors were labelled in Cos-7 cells expressing the human 5-HT2C receptor and in NIH-3T3 expressing the rat 5-HT2C receptor.
Assays were conducted as described for the 5-HT2A receptor except that the radioligand was [^3H]mesulergine. […] .

The target of a further test is T3, human H1 receptor (Homo sapiens, UniProt P35367).
T3 construct: expressed in transfected cells
In words: Cloned human H1 receptor binding assay, [3H]-mepyramine. Here is the method: (§1) CHO cells were stably transfected with an expression plasmid pCineohH1, pCineohH2, pCineohH3 and pCineohH4 encoding the human Histamine H1, H2, H3 or H4 receptor, respectively. Recombinant cell lines were harvested after confluent growth, homogenized in ice-cold 50 mM Na2/potassium phosphate buffer (pH 7.4) and used for radioligand binding studies. Cell homogenates (40 - 50 µg of protein) were incubated for 30 min at 25°C in 50 mM Na2/potassium phosphate buffer (pH 7.4) in 400 µl with the various concentrations of either [^3H]-mepyramine, [^3H]-thiotidine, [^3H]-R-α-Methylhistamine, and [^3H]-pyramilamine for cells expressing recombinant human H1, H2, H3 and H4 receptors, respectively. The nonspecific binding was defined in the presence of 1 µM mianserin. In displacement studies, cell homogenated were incubated either with 1 nM [^3H]-mepyramine, 15 nM [^3H]-thiotidine, 0.5 nM [^3H]-R-α-Methylhistamine, or 15 nM [^3H]-pyramilamine and increasing concentrations of competing ligands. The incubations were stopped by rapid dilution with 3 ml of ice-cold 50 mM Na2/potassium phosphate buffer (pH 7.4). The bound radioactivity was seperated by filatration through Whatman GF/C filters that had been treated with 0.3 % polyethyleneimine. Filters were washed twice in 3 ml of buffer and radioactivity retained on the filters was measured by liquid scinitllation counting. […]

Test [2] has as its target T4, human Histamine H2 receptor (Homo sapiens, UniProt P25021).
T4 construct: expressed in transfected cells
In words: Cloned human H2 receptor binding assay, [3H]-thiotidine. Here is the method: as §1

Test [3] addresses T5, human Histamine H3 receptor (Homo sapiens, UniProt Q9Y5N1).
T5 construct: expressed in transfected cells
In words: Cloned human H3 receptor binding assay, [3H]-R-α-Methylhistamine. How it is done: as §1

Test [4] addresses T6, human Histamine H4 receptor (Homo sapiens, UniProt Q9H3N8).
T6 construct: expressed in transfected cells
In words: Cloned human H4 receptor binding assay, [3H]-pyramilamine. Here is the method: as §1

For another test, the target named is T7, M1 muscarinic receptor (Homo sapiens, UniProt P11229).
T7 sequence (P11229 1-460): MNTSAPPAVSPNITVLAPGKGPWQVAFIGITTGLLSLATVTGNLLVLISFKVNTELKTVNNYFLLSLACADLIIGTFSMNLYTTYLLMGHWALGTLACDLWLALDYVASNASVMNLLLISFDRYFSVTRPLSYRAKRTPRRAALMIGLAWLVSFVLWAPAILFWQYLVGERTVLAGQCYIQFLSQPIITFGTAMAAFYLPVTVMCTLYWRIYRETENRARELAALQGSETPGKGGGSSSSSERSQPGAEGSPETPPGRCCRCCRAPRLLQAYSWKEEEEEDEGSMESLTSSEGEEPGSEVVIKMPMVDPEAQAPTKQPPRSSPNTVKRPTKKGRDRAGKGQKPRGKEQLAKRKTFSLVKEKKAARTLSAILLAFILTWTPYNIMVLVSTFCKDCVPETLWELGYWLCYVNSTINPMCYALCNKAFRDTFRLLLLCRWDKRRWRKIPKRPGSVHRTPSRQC
In words: Receptor affinity, M1 (acetylcholine as agonist). It counts as binding. The note with it: read-out: pKi values (converted). How it is done:
(§2) Summary of pKi values of Pimethixene for the respective receptor subtypes. pKi values were calculated using the equation of Cheng and Prusoff {pKi = -log (IC50/[1+ used concentration of Agonist/EC50])}.EC80 values were calculated from corresponding dose-response experiment using 5-HT, histamine, epinephrine (alpha 1A adrenergic receptor), dopamine (D2 dopaminergic receptor), and acetylcholine (M1 muscarinic receptor) as agonists.

The next test addresses D2 dopaminergic receptor (Homo sapiens, UniProt P14416). In words: Receptor affinity, D2 (dopamine as agonist). It counts as binding. The note with it: read-out: pKi values (converted). How it is done:
as §2

The target in test [5] is T8, alpha 1A adrenergic receptor (Homo sapiens, UniProt P35348).
T8 sequence (P35348 1-466): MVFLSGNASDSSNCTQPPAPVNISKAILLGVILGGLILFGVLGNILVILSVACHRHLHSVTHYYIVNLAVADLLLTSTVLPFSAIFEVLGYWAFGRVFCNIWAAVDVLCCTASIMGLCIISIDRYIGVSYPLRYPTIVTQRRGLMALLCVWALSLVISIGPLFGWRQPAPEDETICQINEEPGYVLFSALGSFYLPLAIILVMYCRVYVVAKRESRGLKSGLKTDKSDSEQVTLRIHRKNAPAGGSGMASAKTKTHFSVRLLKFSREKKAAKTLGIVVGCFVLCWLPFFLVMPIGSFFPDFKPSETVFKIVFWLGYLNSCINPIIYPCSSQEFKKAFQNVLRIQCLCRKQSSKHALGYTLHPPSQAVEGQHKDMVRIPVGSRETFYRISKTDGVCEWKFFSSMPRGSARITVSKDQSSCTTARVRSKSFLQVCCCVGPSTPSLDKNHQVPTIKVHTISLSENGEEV
In words: Receptor affinity, Alpha 1A (epinephrine as agonist). It counts as binding. The note with it: read-out: pKi values (converted). Here is the method:
as §2

A further test concerns the target human 5-HT2B receptor (Homo sapiens, UniProt P41595). In words: Cloned human 5-HT2B receptor binding assay, [3H]-5HT.

The structures appear in SMILES notation.

Sequence of human 5-HT2B receptor (P41595 whole entry): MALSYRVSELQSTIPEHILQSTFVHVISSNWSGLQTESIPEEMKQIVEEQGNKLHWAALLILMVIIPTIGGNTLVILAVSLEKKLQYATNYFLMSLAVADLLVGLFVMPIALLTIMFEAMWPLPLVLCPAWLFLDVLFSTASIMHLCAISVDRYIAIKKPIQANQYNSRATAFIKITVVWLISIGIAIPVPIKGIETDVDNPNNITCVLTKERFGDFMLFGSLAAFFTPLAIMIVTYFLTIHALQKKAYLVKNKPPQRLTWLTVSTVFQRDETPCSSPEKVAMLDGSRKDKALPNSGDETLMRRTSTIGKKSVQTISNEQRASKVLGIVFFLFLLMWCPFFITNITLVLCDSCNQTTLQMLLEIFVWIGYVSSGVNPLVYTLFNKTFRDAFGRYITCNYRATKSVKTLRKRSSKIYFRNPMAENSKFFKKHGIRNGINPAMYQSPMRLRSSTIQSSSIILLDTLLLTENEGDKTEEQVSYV
T3 sequence (P35367 whole entry): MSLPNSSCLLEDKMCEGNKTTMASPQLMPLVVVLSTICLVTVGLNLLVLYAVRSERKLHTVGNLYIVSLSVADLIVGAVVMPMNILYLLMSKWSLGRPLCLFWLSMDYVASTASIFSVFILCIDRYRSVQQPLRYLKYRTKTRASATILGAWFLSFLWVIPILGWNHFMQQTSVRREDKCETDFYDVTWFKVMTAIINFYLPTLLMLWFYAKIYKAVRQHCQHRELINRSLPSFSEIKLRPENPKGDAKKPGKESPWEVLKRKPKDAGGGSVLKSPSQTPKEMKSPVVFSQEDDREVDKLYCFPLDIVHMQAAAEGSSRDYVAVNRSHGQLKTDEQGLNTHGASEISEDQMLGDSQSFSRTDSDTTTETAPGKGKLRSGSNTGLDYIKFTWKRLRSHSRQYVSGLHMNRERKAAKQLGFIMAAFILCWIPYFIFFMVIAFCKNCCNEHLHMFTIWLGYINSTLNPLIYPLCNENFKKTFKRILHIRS
T5 sequence (Q9Y5N1 whole entry): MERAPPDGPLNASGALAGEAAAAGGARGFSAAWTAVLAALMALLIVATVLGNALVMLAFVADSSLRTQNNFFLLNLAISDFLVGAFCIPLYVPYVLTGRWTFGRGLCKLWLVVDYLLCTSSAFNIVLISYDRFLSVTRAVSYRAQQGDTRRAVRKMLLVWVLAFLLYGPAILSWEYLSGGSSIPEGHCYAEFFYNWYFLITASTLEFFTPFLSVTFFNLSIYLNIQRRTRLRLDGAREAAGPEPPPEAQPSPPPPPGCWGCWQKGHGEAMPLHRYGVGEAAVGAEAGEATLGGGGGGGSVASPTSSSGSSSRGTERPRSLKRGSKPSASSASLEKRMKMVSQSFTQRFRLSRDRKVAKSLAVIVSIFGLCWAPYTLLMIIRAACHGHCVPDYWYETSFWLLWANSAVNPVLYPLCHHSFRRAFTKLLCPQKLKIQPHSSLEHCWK
T4 sequence (P25021 whole entry): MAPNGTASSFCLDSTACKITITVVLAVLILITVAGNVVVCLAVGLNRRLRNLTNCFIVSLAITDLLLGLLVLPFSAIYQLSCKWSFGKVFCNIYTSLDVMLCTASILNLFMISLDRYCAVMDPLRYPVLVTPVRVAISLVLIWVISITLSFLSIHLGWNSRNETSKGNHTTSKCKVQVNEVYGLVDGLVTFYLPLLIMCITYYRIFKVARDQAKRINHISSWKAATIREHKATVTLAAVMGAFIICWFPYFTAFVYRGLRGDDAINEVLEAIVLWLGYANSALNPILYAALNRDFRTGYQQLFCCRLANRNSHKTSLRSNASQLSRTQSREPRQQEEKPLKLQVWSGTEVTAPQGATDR
T6 sequence (Q9H3N8 whole entry): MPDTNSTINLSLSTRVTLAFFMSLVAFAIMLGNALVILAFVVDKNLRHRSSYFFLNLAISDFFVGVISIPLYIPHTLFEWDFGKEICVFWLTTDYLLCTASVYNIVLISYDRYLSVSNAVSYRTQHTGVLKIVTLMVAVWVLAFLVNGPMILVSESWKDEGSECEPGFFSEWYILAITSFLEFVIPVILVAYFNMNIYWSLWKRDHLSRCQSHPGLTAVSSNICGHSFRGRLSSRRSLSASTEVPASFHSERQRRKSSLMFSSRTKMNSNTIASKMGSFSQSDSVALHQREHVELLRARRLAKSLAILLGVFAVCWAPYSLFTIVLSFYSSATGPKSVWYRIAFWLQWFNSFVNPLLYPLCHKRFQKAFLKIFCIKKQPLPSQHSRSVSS
Sequence of D2 dopaminergic receptor (P14416 whole entry): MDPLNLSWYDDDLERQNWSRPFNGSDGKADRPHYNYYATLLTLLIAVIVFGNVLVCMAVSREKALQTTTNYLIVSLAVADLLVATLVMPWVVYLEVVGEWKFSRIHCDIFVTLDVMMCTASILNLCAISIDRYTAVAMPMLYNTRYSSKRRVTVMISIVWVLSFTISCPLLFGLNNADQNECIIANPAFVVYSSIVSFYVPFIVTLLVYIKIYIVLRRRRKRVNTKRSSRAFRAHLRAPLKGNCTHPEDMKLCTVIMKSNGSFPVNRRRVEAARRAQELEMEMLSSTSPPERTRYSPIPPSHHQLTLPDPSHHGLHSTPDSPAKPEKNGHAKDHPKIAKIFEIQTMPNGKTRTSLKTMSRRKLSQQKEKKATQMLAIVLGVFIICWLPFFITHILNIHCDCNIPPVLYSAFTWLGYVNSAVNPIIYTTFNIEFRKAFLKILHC
T2 sequence (P28335 33-458): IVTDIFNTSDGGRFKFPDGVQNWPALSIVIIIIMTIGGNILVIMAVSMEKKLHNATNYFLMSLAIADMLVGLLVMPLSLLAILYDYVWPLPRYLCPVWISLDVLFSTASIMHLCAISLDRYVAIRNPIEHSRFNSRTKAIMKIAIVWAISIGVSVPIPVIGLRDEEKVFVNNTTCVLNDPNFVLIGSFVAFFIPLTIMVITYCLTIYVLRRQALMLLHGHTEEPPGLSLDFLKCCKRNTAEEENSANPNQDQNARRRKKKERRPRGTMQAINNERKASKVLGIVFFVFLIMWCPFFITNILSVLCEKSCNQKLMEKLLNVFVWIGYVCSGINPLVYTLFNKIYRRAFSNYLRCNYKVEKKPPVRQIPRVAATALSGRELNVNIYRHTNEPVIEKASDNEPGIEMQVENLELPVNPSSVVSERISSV
T1 sequence (P28223 whole entry): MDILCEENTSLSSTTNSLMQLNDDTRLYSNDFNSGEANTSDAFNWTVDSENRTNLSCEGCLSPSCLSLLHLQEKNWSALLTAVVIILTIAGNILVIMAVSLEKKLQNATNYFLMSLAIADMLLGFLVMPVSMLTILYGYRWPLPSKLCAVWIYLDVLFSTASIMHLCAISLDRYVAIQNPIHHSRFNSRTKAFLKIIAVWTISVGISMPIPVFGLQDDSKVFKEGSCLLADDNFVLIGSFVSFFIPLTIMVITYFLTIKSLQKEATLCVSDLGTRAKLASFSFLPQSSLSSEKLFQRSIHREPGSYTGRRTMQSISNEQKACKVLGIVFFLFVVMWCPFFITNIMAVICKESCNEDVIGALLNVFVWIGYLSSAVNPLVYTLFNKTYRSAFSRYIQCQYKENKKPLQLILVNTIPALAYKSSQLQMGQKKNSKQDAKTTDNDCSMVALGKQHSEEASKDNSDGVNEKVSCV

With `Clc1cccc(N2CCNCC2)c1` [mCPP, m-chlorophenylpiperazine], in test [1] (positive control: mCPP agonist alone, 1µg/kg, negative control 0,130 ± 0,024), the extinction is listed as 0,300 ± 0,038.

Regarding `CN1CCC(=C2c3ccccc3Sc3ccccc32)CC1` [Pimethixene, 9-(N-methyl-piperidyliden-4)-thioxanthene], the Ki at 5-HT2A receptor is 0.0631 nM; at 5-HT2C receptor, 2.51 nM; at human H1 receptor (H1, read-out: pKi values (converted)), 0.00794 nM; on M1 muscarinic receptor, 2.51 nM; at D2 dopaminergic receptor, 6.31 nM; in [5], 25.1 nM. The molecule also gave a Ki on human 5-HT2B receptor of 0.0251 nM. Besides, the affinity entry at human H1 receptor (human H1 receptor, result in words) was “high affinity”; in [2] (human H2 receptor, result in words) it was “no affinity”; in test [3] (human H3 receptor, result in words), “no affinity”; in test [4] (human H4 receptor, result in words), “no affinity”. The pKi values result in test [2] (H2), in [3] (H3) and in test [4] (H4) was “low activity” each time. Also, the entries for the “plasma protein extravasation as EvansBlue extinction at 600nm” value (shortened to “plasma protein extravasation”) in test [1] (0,01 µg/kg i.v.), in test [1] (0,1 µg/kg i.v.) and in test [1] (0,001 µg/kg i.v.) were 0,157 ± 0,040, 0,126 ± 0,028 and 0,269 ± 0,022, respectively. At human 5-HT2B receptor (selectivity, result in words), the “affinity for the 5-HT2B receptor versus 5HT2C receptor” value was “selective affinity”.

For the molecule `CN1CCC(=C2c3ccccc3CCc3sccc32)CC1` [Pizotifen], the “plasma protein extravasation” value is 0,404 ± 0,025 in test [1] (1 µg/kg i.v.), 0,144 ± 0,035 in test [1] (10 µg/kg i.v.) and 0,230 ± 0,018 in test [1] (100 µg/kg i.v.). Further, on human 5-HT2B receptor, the Ki was 2.88 nM.

On to `CC[C@@H](CO)NC(=O)[C@@H]1C=C2c3cccc4c3c(cn4C)C[C@H]2N(C)C1` [Methysergide], for which the “plasma protein extravasation” value is on record as 0,265 ± 0,034 in test [1] (0,1 µg/kg i.v.), 0,250 ± 0,027 in test [1] (1 µg/kg i.v.), 0,228 ± 0,064 in test [1] (10 µg/kg i.v.) and 0,189 ± 0,026 in test [1] (100 µg/kg i.v.).

Values taken from EP1655027A1, “9-(N-methyl-piperidyliden-4)-thioxanthene for treatment of pulmonary hypertension and migraine” (Biofrontera Pharmaceuticals GmbH, priority 2004, dated 2006).
